Assay [1] has as its target T1, hTAS1R2/rTAS1R3(Mut1) (UniProt Q8TE23+Q923K1, A277V/L68N/R278H/S168G/S302A).
T1 construct: The cDNA coding region of rTAS1R3 was synthesized with optimized-codon usage for human expression; expressed in transfected cells
In words: Calcium assay, mutated rTAS1R3 co-expressed with hTAS1R2. The format is cell-based, human, rat.
Description: HEK293T/17 cells (ATCC CRL-11268) were seeded into clear bottom black 96-well plates coated with poly-D-lysine at a density of 32500 cells/well in 100 μL of DMEM containing 4.5 g/L glucose and supplemented with penicillin/streptomycin, 2 mM GlutaMAX and 10 % dialyzed fetal bovine serum. The plates were incubated for 24 h at 37 °C and 7.3 % CO2 in a humidified atmosphere. After incubation, using Fugene® 4 K (0.46 μL/well, Promega, Illkirch, France), the cells were transiently transfected with pcDNA3-hTAS1R1-WT (60 ng/well) or TAS1R1 mutants, pcDNA4-rTAS1R3 (60 ng/well), pcDNA3-Gα15i2 (10 ng/well), and pGP-CMV-GCaMP6s (Addgene #40753; 10 ng/well) as a genetically encoded calcium indicator. […] After 20 s of basal fluorescence calcium measurement, the cells were stimulated via automatic injection of a range of compounds in eight wells, and the signal emission was recorded for an additional 70 s, via a FlexStation 3® fluorometric microplate reader (Molecular Devices, San Jose, CA, USA). […] The emitted fluorescence was measured at a wavelength of 510 nm after excitation at 488 nm. […] For each well, the decrease in the raw fluorescence as the relative fluorescence changed was calculated as ΔF/F0. Replicates were averaged for the wells subjected to the same stimuli, the background signal was subtracted, and the fluorescence changes in mock-transfected cells were subtracted. […]

The target of assay [2] is T2, hTAS1R2/hTAS1R3(r570–858) (Homo sapiens, UniProt Q7RTX0+Q8TE23, A579V/A607F/A718V/A733V/A735I/A808T/C675Y/C757R/D670N/F730L/G674S/G822E/H593Y/H712Q/L571S/L639M/L789Y/L798I/L800F/L816V/M689T/M713V/M818L/P605S/P630S/P826Q/Q627R/Q820L/R594W/R632S/R671W/R752Q/R790Q/R813K/R819W/S577C/S629R/S640A/S673C/T697A/T724M/T739V/T774I/V583T/V612I/V617F/V693A/V701M/V720E/V788A/V802A).
T2 construct: hTAS1R3(r570–858) consists of the N-terminal extracellular domain of hTAS1R3 and the TMD of rTAS1R3; TMD of rTAS1R3 (r570–858); expressed in transfected cells
T2 sequence (Q8TE23 20-839, stated change not applied): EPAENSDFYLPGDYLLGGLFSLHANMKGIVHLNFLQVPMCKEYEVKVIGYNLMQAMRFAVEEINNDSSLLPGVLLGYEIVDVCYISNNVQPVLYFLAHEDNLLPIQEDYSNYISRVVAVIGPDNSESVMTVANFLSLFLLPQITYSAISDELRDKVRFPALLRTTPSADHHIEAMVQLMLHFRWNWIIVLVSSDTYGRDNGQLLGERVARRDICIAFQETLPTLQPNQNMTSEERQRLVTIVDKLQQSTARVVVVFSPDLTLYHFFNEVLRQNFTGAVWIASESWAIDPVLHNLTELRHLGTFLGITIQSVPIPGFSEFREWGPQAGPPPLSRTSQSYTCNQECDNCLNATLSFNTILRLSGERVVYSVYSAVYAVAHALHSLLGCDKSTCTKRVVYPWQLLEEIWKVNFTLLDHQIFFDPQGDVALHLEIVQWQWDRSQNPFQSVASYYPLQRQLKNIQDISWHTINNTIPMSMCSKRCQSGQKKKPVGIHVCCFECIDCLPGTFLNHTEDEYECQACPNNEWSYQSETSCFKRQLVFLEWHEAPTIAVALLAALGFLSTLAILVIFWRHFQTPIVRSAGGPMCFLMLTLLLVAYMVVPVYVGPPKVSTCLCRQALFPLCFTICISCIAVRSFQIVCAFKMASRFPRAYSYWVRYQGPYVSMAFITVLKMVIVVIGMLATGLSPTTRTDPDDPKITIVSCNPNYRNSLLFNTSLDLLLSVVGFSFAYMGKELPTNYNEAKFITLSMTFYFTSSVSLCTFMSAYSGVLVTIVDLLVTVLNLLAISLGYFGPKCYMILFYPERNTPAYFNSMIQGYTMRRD
T2 sequence (Q7RTX0 with tags, fused parts or gaps with the stated changes limits assumed): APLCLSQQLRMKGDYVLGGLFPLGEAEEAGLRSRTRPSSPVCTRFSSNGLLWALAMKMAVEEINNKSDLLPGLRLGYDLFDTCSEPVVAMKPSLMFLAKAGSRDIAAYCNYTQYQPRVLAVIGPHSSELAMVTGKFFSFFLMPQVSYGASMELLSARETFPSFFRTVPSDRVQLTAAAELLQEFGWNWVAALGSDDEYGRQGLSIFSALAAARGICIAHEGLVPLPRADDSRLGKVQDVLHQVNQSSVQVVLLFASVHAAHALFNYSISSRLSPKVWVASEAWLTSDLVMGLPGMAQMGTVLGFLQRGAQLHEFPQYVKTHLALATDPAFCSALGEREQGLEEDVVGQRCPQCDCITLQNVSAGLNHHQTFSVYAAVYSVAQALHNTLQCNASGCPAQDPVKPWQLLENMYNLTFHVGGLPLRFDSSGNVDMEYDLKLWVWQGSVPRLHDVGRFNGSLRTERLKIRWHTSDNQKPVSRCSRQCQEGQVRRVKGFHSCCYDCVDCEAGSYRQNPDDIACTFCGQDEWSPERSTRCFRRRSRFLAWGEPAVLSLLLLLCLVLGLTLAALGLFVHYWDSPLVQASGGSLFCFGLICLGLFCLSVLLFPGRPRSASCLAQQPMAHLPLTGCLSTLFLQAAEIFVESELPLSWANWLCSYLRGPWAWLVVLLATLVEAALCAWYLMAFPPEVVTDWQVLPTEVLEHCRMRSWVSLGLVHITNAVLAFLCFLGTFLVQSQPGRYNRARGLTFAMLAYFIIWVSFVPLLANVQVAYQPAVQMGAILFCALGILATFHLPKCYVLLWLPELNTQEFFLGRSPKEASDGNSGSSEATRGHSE
In words: Calcium assay, chimeric TAS1R3 co-expressed with hTAS1R2. It is filed as cell-based, rat. An excerpt: (§1) Chimeric Gα proteins, such as Gα16Gust44, Gα16Gi3 or Gα15i2, are widely used in the functional expression of TAS1R receptors ([Backes et al., 2015]; [Suess et al., 2015]; [Toda et al., 2021], [Toda et al., 2013], [Toda et al., 2018]; [Zhang et al., 2008]). Chimeric Gα15i2 (([Toda et al., 2013]), Supplementary data) was generated by replacing the last five residues of the C-terminal tail of rat Gα15i2 (EINLL) (UniProt number G3V6N8; https://www.uniprot.org/uniprot/) with the counterpart sequence from human GNAI2 (DCGLF) (UniProt number P04899-1) and cloning into the pcDNA3.1/Hygro vector (Invitrogen, Thermo Fisher Scientific, Illkirch, France) between the HindIII and NotI restriction sites, resulting in the plasmid pcDNA3.1-Gα15i2. Chimeric Gα16Gust44 construct have already been reported ([Raliou et al., 2011]). Briefly, Gα16Gust44 was generated by replacing the C-terminal of Gα16 with the C-terminal 44 residues of gustducin. As previously described, hTAS1R1 was amplified from human fungiform papillae cDNA and cloned and inserted into pcDNA3 (Invitrogen), generating pcDNA3-TAS1R1-WT (wild-type) ([Raliou et al., 2011]). […]

For assay [3], the target named is T3, hTAS1R2/hTAS1R3(r1–575) (UniProt Q8TE23+Q923K1, A645S/A698V/A702T/A793V/A807V/C582S/C678S/E725V/E827G/F612A/F622V/F805L/I617V/I740A/I779T/I803L/K818R/L735F/L823M/L825Q/M644L/M706V/M729T/N675D/Q717H/Q757R/Q795R/Q831P/R632Q/R634S/R762C/S576L/S610P/S635P/S637R/S679G/T588V/T694M/T813A/V584A/V718M/V723A/V738A/V744T/V821L/W599R/W676R/W824R/Y598H/Y680C/Y794L).
T3 construct: hTAS1R3(r1–575) consists of the N-terminal extracellular domain of rTAS1R3 and the TMD of hTAS1R3; expressed in transfected cells
T3 sequence (Q8TE23 20-839, stated change not applied): as the sequence (Q8TE23 20-839, stated change not applied) above
T3 sequence (Q923K1 other isoform, or with tags, fused parts or gaps with the stated changes): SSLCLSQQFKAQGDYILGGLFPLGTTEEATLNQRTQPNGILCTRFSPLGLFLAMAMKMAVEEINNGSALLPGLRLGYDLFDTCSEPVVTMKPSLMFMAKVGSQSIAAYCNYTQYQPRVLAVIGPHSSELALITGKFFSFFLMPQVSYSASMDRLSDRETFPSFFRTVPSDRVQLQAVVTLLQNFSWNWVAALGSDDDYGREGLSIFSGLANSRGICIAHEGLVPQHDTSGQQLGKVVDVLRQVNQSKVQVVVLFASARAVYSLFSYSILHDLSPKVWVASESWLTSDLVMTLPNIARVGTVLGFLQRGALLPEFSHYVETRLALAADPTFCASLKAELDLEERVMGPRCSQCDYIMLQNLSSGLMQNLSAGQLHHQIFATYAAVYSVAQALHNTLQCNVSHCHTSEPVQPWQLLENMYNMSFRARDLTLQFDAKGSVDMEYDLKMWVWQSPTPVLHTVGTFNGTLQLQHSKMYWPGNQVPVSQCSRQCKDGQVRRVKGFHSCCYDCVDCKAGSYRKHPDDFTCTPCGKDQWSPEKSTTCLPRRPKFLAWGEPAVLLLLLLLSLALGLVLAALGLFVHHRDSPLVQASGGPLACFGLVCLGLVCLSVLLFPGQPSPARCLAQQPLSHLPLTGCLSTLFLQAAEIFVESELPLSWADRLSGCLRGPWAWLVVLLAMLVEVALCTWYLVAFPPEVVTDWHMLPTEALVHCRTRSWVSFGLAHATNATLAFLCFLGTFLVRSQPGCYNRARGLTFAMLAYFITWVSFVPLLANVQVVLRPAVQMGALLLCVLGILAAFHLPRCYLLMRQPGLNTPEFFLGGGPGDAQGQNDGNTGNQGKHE
Described as above. The format is cell-based, human, rat.
Description: as §1

Assay [4] concerns the target T4, hTAS1R1 (Homo sapiens, UniProt Q7RTX1).
T4 construct: UniProtKB number Q7RTX1–1); expressed in transfected cells; host or cells: HEK293 cells
T4 sequence (Q7RTX1 21-841): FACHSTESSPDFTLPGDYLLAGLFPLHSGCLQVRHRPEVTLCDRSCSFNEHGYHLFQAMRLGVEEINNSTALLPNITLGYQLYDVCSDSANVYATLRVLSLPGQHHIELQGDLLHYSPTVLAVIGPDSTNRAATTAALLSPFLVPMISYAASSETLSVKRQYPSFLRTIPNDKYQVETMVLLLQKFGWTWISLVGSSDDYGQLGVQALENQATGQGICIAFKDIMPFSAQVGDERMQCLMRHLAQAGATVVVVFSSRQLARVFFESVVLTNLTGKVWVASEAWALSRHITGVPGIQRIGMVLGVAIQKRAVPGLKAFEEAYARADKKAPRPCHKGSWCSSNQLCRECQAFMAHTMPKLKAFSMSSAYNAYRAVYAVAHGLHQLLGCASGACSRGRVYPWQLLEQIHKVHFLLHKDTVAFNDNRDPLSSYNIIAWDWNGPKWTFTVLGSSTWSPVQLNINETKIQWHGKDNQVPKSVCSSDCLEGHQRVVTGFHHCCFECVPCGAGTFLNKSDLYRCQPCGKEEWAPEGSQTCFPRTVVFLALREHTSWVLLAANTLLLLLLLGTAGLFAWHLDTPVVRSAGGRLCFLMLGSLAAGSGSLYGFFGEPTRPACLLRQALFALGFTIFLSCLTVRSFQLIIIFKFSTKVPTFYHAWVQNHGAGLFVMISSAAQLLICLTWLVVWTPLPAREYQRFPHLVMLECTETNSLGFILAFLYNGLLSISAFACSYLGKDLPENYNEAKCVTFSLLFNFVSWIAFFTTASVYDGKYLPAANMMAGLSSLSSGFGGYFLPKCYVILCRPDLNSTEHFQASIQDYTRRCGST
In words: Calcium assay, subunit expressed alone. It is filed as cell-based.
Description: HEK293T/17 cells (ATCC CRL-11268) were seeded into clear bottom black 96-well plates coated with poly-D-lysine at a density of 32500 cells/well in 100 μL of DMEM containing 4.5 g/L glucose and supplemented with penicillin/streptomycin, 2 mM GlutaMAX and 10 % dialyzed fetal bovine serum. The plates were incubated for 24 h at 37 °C and 7.3 % CO2 in a humidified atmosphere. After incubation, using Fugene® 4 K (0.46 μL/well, Promega, Illkirch, France), the cells were transiently transfected with pcDNA3-hTAS1R1-WT (60 ng/well) or TAS1R1 mutants, pcDNA4-rTAS1R3 (60 ng/well), pcDNA3-Gα15i2 (10 ng/well), and pGP-CMV-GCaMP6s (Addgene #40753; 10 ng/well) as a genetically encoded calcium indicator. Twenty-four hours after transfection, the HEK293T/17 cells were rinsed with 100 μL of C1 buffer (130 mM NaCl, 5 mM KCl, 10 mM HEPES, 2 mM CaCl2, and 5 mM sodium pyruvate, pH 7.4). For each molecule tested, a semi-logarithmic concentration range was created consisting of seven increasing concentrations and a negative control (zero dose) made of buffer C1. […] After 20 s of basal fluorescence calcium measurement, the cells were stimulated via automatic injection of a range of compounds in eight wells, and the signal emission was recorded for an additional 70 s, via a FlexStation 3® fluorometric microplate reader (Molecular Devices, San Jose, CA, USA). […] The emitted fluorescence was measured at a wavelength of 510 nm after excitation at 488 nm. […] For each well, the decrease in the raw fluorescence as the relative fluorescence changed was calculated as ΔF/F0. Replicates were averaged for the wells subjected to the same stimuli, the background signal was subtracted, and the fluorescence changes in mock-transfected cells were subtracted. The half-maximal effective concentration (EC50) and maximal signal amplitude (max ∆F/F0) were calculated via non-linear regression of the sigmoidal function four-parameter logistic equation [f(x) = min + (max − min)/(1 + (x/EC50)^nH)] via SigmaPlot 15.0 software (Grafiti LLC, Palo Alto, CA, USA). […]

Molecules are shown by their SMILES.

T1 sequence (Q8TE23 20-839, stated change not applied): as the sequence (Q8TE23 20-839, stated change not applied) above
T1 sequence (Q923K1 21-858 L68N/S168G/A277V/R278H/S302A): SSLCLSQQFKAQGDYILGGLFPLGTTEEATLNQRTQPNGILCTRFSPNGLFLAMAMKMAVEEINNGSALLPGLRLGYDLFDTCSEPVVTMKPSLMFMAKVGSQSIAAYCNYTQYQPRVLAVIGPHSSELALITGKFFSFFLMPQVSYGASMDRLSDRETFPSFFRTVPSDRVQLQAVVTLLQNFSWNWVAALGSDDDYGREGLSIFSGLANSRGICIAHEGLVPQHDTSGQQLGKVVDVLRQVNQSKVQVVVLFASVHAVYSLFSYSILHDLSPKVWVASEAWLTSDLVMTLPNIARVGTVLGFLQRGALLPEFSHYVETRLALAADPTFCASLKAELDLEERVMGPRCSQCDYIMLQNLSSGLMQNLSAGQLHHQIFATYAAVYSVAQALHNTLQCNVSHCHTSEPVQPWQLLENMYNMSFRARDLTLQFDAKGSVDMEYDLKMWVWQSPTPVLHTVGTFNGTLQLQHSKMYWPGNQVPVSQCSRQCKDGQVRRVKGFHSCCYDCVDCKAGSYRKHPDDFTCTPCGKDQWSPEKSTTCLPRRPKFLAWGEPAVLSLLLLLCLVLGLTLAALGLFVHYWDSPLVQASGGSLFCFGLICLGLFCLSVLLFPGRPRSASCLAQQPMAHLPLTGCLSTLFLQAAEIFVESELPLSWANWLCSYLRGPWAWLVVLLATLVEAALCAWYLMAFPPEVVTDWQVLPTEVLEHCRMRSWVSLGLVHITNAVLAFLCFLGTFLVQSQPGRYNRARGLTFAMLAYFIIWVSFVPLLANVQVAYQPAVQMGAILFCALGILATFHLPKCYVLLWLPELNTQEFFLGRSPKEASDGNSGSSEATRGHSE

Regarding `OC[C@H]1O[C@H](O[C@]2(CCl)O[C@H](CCl)[C@@H](O)[C@@H]2O)[C@H](O)[C@@H](O)[C@H]1Cl` [sucralose, reference compound], the EC50 in assay [1] (sucralose alone, Fig. 4A) was found to be 283 ± 55 µM; in assay [2] (sucralose alone, Fig. 3B), 67 ± 1 µM; in assay [3] (sucralose alone, Fig. 3B), 485 ± 138 µM.
As to `N[C@@H](CCC(=O)N[C@@H](CS)C(=O)NCC(=O)O)C(=O)O` [GSH, γ-L-glutamyl-L-cysteinyl-glycine], the “effect of 10 mM GSH on the response to S807” value in assay [4] is given as “not increased”. In addition, the “response of transfected cells” value in assay [4] (GSH alone, Fig. 5A) is recorded as “did not respond”. Also, the “effect of 10 mM GSH on the response to sucralose” value in assay [1] is “not increased”. For the same molecule, in assay [2], the “effect of GSH on the response to sucralose” value was “unaffected”. Moreover, the “fold decrease in the EC50 value of sucralose” value in assay [3] (in the presence of 10 mM GSH) stood at 5.2 fold.
Turning to `CCCC(CCC)NC(=O)c1ccc2c(c1)OCO2` [S807, N-(heptan-4-yl)benzo[d][1,3]dioxole-5-carboxamide, reference compound], the EC50 in assay [4] (S807 alone, Fig. 5D) amounted to 0.89 ± 0.13 µM.

The values above are taken from article PMC12615753, “Glutathione as a taste modulator: molecular mechanisms of interaction with umami and sweet taste receptors” (Food Chemistry: Molecular Sciences, 2025).
